From patent US20240287138A1, “CYCLIC PEPTIDES FOR INHIBITING TNF RECEPTOR 1 ACTIVITY” (Merck Sharp & Dohme LLC, priority 2023, published 2024) come the findings set out here.

For orientation: Kd means the equilibrium constant for the complex coming apart. What is called IC50 is the concentration that inhibits the measured activity by half.

Numbered stars: 1 amine (or outer) side, 2 acyl side, 3 side chain; on linkers, the order of the positions; unused ones are H or OH. Square brackets hold non-standard residues; d marks the D form. Peptide text beside a SMILES is read from it. * marks the point of attachment. Trp(7-aza,1-CH2COOH) = N[C@@H](Cc1cn(CC(=O)O)c2ncccc12)C(=O)O; Trp(βS-Me,7-OMe) = COc1cccc2c([C@H](C)[C@H](N)C(=O)O)c[nH]c12; X49 = C[N+](C)(C)CC(=O)N[C@H]1C[C@H](C(=O)[*:2])N([*:1])C1; Trp(1-CH2COOH) = N[C@@H](Cc1cn(CC(=O)O)c2ccccc12)C(=O)O; X44 = NC(=O)c1ccc([C@@H](O)[C@H](N[*:1])C(=O)[*:2])cc1; Phe(4-SO2NH2) = N[C@@H](Cc1ccc(S(N)(=O)=O)cc1)C(=O)O; Trp(7-CN) = N#Cc1cccc2c(C[C@H](N)C(=O)O)c[nH]c12; Trp(7-Cl) = N[C@@H](Cc1c[nH]c2c(Cl)cccc12)C(=O)O; X27 = O=C(O)c1ccc(C[C@H](N[*:1])C(=O)[*:2])cc1F; Phe(4-CONH2) = NC(=O)c1ccc(C[C@H](N)C(=O)O)cc1; Phe(4-COOH) = N[C@@H](Cc1ccc(C(=O)O)cc1)C(=O)O; X30 = O=C([C@@H](N[*:1])[C@H](O)c1ccncc1)[*:2]; Trp(7-aza) = N[C@@H](Cc1c[nH]c2ncccc12)C(=O)O; Pip(5R-OH) = O=C(O)[C@@H]1CC[C@@H](O)CN1; X1 = O=C([C@@H]1CC[C@H](N[*:1])C1)[*:2]; 4Pal = N[C@@H](Cc1ccncc1)C(=O)O; NMeE = CN[C@@H](CCC(=O)O)C(=O)O; dHyp = O=C(O)[C@H]1C[C@H](O)CN1; αMeS = C[C@](N)(CO)C(=O)O; Carboxymethyl = O=C(O)C*; Nle = CCCC[C@H](N)C(=O)O; Sar = CNCC(=O)O

The target in assay [1] is T1, human soluble TNFR1 (sTNFR1) (Homo sapiens, UniProt P19438).
T1 construct: made in house; host or cells: Sf21 (baculovirus)
T1 sequence (P19438 with tags, fused parts or gaps): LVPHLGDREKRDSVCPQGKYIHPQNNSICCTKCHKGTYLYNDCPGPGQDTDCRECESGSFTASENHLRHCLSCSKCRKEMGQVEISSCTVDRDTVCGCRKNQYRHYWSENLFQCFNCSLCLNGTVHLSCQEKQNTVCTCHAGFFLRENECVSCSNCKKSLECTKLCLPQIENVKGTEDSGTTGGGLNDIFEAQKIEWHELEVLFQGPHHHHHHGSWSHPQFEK
The experiment in a line: Human sTNFR1-peptide displacement assay (LanthaScreen Eu TR-FRET binding assay). The method, boiled down:
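Readout is the 665/615 nm TR-FRET ratio (Eu anti-His donor, streptavidin-Alexa647 acceptor), normalized to DMSO and saturating displacer, fit by Morrison-based five-parameter logistic for Kd^app. His-tagged sTNFR1 (1-211) prebound to 100 nM biotinylated peptide SEQ ID NO.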
A general note: In TR-FRET formats the signal depends on donor and acceptor labels being close together.

Assay [2] addresses T2, TNFα-induced NF-κB signal transduction pathway (TNFR1 signaling) in THP-1 cells (Homo sapiens, UniProt P19438).
T2 sequence (P19438 30-455): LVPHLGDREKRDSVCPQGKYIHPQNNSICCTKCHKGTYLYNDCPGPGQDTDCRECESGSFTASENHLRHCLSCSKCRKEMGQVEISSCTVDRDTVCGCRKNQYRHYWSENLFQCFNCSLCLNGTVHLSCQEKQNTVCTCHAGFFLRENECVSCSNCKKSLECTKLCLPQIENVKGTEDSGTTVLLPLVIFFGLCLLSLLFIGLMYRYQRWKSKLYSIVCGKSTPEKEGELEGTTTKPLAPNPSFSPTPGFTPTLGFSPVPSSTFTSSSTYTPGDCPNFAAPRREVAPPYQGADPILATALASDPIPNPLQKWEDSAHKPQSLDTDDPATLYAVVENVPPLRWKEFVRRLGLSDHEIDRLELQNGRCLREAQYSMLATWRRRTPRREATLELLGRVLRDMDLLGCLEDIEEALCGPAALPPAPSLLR
Briefly: THP-1 Lucia NF-κB reporter cell assay, inhibition of TNFα-induced NF-κB signaling. Type of assay: cell-based. The conditions noted are these: THP-1 NF-κB Lucia reporter cells, 10 ng/mL TNFα, 16-18 h, secreted luciferase; read-out: THP-1 IC50. The method, boiled down:
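Macrocyclic peptides were preincubated 1 h at 37 °C with THP-1 NF-κB-Lucia reporter cells (20,000 cells/well) in antibiotic-free RPMI 1640/10% FBS, then stimulated with 10 ng/mL human TNFα overnight (16-18 h). Secreted luciferase in supernatant was read by luminescence; IC50 from 4-parameter logistic fits.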

For the compound `CCCC[C@@H]1NC(=O)[C@@H]2CC[C@@H](C2)NC(=O)[C@H]([C@@H](C)c2c[nH]c3c(OC)cccc23)NC(=O)CN(C)C(=O)[C@H](Cc2ccc(OCC(=O)O)cc2)NC(=O)[C@H](Cc2ccc(S(N)(=O)=O)cc2)NC(=O)[C@](C)(CO)NC(=O)[C@H](Cc2c[nH]c3c(C#N)cccc23)NC(=O)[C@H](Cc2ccncc2)NC(=O)[C@H](CC(N)=O)NC(=O)[C@H]2C[C@H](OCC(=O)O)CN2C(=O)[C@H](Cc2cn(CC(=O)O)c3ncccc23)NC(=O)[C@@H]2CC[C@@H](O)CN2C(=O)[C@H](Cc2ccncc2)NC1=O` [SEQ ID NO. 115] (cyclo([4Pal][Trp(7-CN)][αMeS][Phe(4-SO2NH2)]Y(Carboxymethyl)[Sar][Trp(βS-Me,7-OMe)][X1][Nle][4Pal][Pip(5R-OH)][Trp(7-aza,1-CH2COOH)][dHyp](Carboxymethyl)N)), in assay [1], binding was characterised by a dissociation constant (Kd) of 0.19 nM. The IC50 in assay [2] came out at 1.4 nM.

On to `CCCC[C@@H]1NC(=O)[C@@H]2CC[C@@H](C2)NC(=O)[C@H]([C@@H](C)c2c[nH]c3c(OC)cccc23)NC(=O)CN(C)C(=O)[C@H](Cc2ccc(C(=O)O)cc2)NC(=O)[C@H](Cc2ccc(C(N)=O)cc2)NC(=O)[C@](C)(CO)NC(=O)[C@H](Cc2c[nH]c3c(C#N)cccc23)NC(=O)[C@H](Cc2ccc(C(=O)O)c(F)c2)NC(=O)[C@H](CC(N)=O)NC(=O)[C@H]2C[C@H](NC(=O)C[N+](C)(C)C)CN2C(=O)[C@H](Cc2c[nH]c3ncccc23)NC(=O)[C@@H]2CC[C@@H](O)CN2C(=O)[C@H](Cc2ccncc2)NC1=O` [SEQ ID NO. 116] (cyclo([4Pal][Pip(5R-OH)][Trp(7-aza)][X49]N[X27][Trp(7-CN)][αMeS][Phe(4-CONH2)][Phe(4-COOH)][Sar][Trp(βS-Me,7-OMe)][X1][Nle])), for which binding in assay [1] was characterised by a dissociation constant (Kd) of 0.08 nM. The IC50 in assay [2] was 0.4 nM.

`CCCC[C@@H]1NC(=O)[C@@H]2CC[C@@H](C2)NC(=O)[C@H]([C@@H](C)c2c[nH]c3c(OC)cccc23)NC(=O)CN(C)C(=O)[C@H](Cc2ccc(C(=O)O)cc2)NC(=O)[C@H]([C@H](O)c2ccc(C(N)=O)cc2)NC(=O)[C@](C)(CO)NC(=O)[C@H](Cc2c[nH]c3c(C#N)cccc23)NC(=O)[C@H](Cc2ccc(S(N)(=O)=O)cc2)NC(=O)[C@H](CC(N)=O)NC(=O)[C@H]2C[C@H](O)CN2C(=O)[C@H](Cc2cn(CC(=O)O)c3ccccc23)NC(=O)[C@@H]2CC[C@@H](O)CN2C(=O)[C@H](Cc2ccncc2)NC1=O` [SEQ ID NO. 119] (cyclo([4Pal][Pip(5R-OH)][Trp(1-CH2COOH)][dHyp]N[Phe(4-SO2NH2)][Trp(7-CN)][αMeS][X44][Phe(4-COOH)][Sar][Trp(βS-Me,7-OMe)][X1][Nle])) showed a Kd in assay [1] of 0.12 nM. The IC50 in assay [2] was 0.7 nM.

For `CCCC[C@@H]1NC(=O)[C@@H]2CC[C@@H](C2)NC(=O)[C@H]([C@@H](C)c2c[nH]c3c(OC)cccc23)NC(=O)CN(C)C(=O)[C@H](Cc2ccc(OCC(=O)O)cc2)NC(=O)[C@H](Cc2ccc(C(N)=O)cc2)NC(=O)[C@](C)(CO)NC(=O)[C@H](Cc2c[nH]c3c(Cl)cccc23)NC(=O)[C@H](Cc2ccncc2)NC(=O)[C@H](CC(N)=O)NC(=O)[C@H](CCC(=O)O)N(C)C(=O)[C@H](Cc2c[nH]c3ccccc23)NC(=O)[C@@H]2CC[C@@H](O)CN2C(=O)[C@H](Cc2ccncc2)NC1=O` [SEQ ID NO. 126] (cyclo([4Pal][Trp(7-Cl)][αMeS][Phe(4-CONH2)]Y(Carboxymethyl)[Sar][Trp(βS-Me,7-OMe)][X1][Nle][4Pal][Pip(5R-OH)]W[NMeE]N)), in assay [1], the Kd came to 0.08 nM. Also, the IC50 in assay [2] amounted to 0.8 nM.

As to `CCCC[C@@H]1NC(=O)[C@@H]2CC[C@@H](C2)NC(=O)[C@H]([C@@H](C)c2c[nH]c3c(OC)cccc23)NC(=O)CN(C)C(=O)[C@H](Cc2ccc(C(N)=O)cc2)NC(=O)[C@H](Cc2ccc(C(N)=O)cc2)NC(=O)[C@](C)(CO)NC(=O)[C@H](Cc2c[nH]c3c(C#N)cccc23)NC(=O)[C@H]([C@H](O)c2ccncc2)NC(=O)[C@H](CC(N)=O)NC(=O)[C@H]2C[C@H](OCC(=O)O)CN2C(=O)[C@H](Cc2cn(CC(=O)O)c3ccccc23)NC(=O)[C@@H]2CC[C@@H](O)CN2C(=O)[C@H](Cc2ccncc2)NC1=O` [SEQ ID NO. 129] (cyclo([4Pal][Pip(5R-OH)][Trp(1-CH2COOH)][dHyp](Carboxymethyl)N[X30][Trp(7-CN)][αMeS][Phe(4-CONH2)][Phe(4-CONH2)][Sar][Trp(βS-Me,7-OMe)][X1][Nle])), the Kd in assay [1] turned out to be 0.48 nM. The IC50 in assay [2] turned out to be 3.1 nM.
